This is an account of results in patent US20230093099A1, “COMPOUNDS AND METHODS OF TREATING CANCERS” (CULLGEN (SHANGHAI), INC., priority 2019, published 2023).

The structures appear in SMILES notation.

One test concerns RS4;11 cells. In words: Cell viability assay (CellTiter-Glo) in RS4;11 cells. The test is classed as cell-based. To be noted: Homo sapiens, 72 h; RS4;11 ALL cells treated for three days; read-out: cell viability inhibition IC50. The method in brief: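 Three-day compound treatment of RS4;11 ALL cells (5000/well, 3-fold dilution series of 8 or 12 points), with IC50 from a nonlinear least-squares fit to CellTiter-Glo viability data.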
On the technique in general: In ATP-based viability assays light output follows the ATP content of the culture.
As to `Cc1cnc(Nc2ccc(N3CCN(CC(=O)NCCCCCNc4cccc5c4C(=O)N(C4CCC(=O)NC4=O)C5=O)CC3)cc2)nc1Nc1cccc(S(=O)(=O)NC(C)(C)C)c1` (centres unmarked) [JA-093, 2-(4-(4-((4-((3-(N-(tert-butyl)sulfamoyl)phenyl)amino)-5-methylpyrimidin-2-yl)amino)phenyl)piperazin-1-yl)-N-(5-((2-(2,6-dioxopiperidin-3-yl)-1,3-dioxoisoindolin-4-yl)amino)pentyl)acetamide], the IC50 – broadly, the concentration at which inhibition is half-maximal – is less than 100 nM. Take `Cc1cnc(Nc2ccc(N3CCN(CC(=O)NCCCCCCNc4cccc5c4C(=O)N(C4CCC(=O)NC4=O)C5=O)CC3)cc2)nc1Nc1cccc(S(=O)(=O)NC(C)(C)C)c1` (centres unmarked) [JA-094, 2-(4-(4-((4-((3-(N-(tert-butyl)sulfamoyl)phenyl)amino)-5-methylpyrimidin-2-yl)amino)phenyl)piperazin-1-yl)-N-(6-((2-(2,6-dioxopiperidin-3-yl)-1,3-dioxoisoindolin-4-yl)amino)hexyl)acetamide]: the IC50 was less than 100 nM.

Still in this test, the particulars now being: Homo sapiens, 72 h; RS4;11 cells; cell viability, 3 days, CellTiter-Glo; read-out: IC50.
In the case of `CS(=O)(=O)c1ccc(-c2cccc3nc(Nc4ccc(N5CCN(C(=O)CCCCCCNc6cccc7c6C(=O)N(C6CCC(=O)NC6=O)C7=O)CC5)cc4)nn23)cc1` (centres unmarked) [JA-078, 2-(2,6-Dioxo-piperidin-3-yl)-4-[7-(4-{4-[5-(4-methanesulfonyl-phenyl)-[1,2,4]triazolo[1,5-a]pyridin-2-ylamino]-phenyl}-piperazin-1-yl)-7-oxo-heptylamino]-isoindole-1,3-dione], the IC50 was more than 10000 nM. On the same count and under the same terms, then `CS(=O)(=O)c1ccc(-c2cccc3nc(Nc4ccc(N5CCN(C(=O)CCOCCNc6cccc7c6C(=O)N(C6CCC(=O)NC6=O)C7=O)CC5)cc4)nn23)cc1` (centres unmarked) [JA-079, 2-(2,6-Dioxo-piperidin-3-yl)-4-{2-[3-(4-{4-[5-(4-methanesulfonyl-phenyl)-[1,2,4]triazolo[1,5-a]pyridin-2-ylamino]-phenyl}-piperazin-1-yl)-3-oxo-propoxy]-ethylamino}-isoindole-1,3-dione], with 479 nM; and `CS(=O)(=O)c1ccc(-c2cccc3nc(Nc4ccc(N5CCN(C(=O)CCOCCOCCOCCOCCNc6cccc7c6C(=O)N(C6CCC(=O)NC6=O)C7=O)CC5)cc4)nn23)cc1` (centres unmarked) [JA-080, 2-(2,6-Dioxo-piperidin-3-yl)-4-{2-[2-(2-{2-[3-(4-{4-[5-(4-methanesulfonyl-phenyl)-[1,2,4]triazolo[1,5-a]pyridin-2-ylamino]-phenyl}-piperazin-1-yl)-3-oxo-propoxy]-ethoxy}-ethoxy)-ethoxy]-ethylamino}-isoindole-1,3-dione], with 573 nM; and `Cc1ncsc1-c1ccc(CNC(=O)[C@@H]2C[C@@H](O)CN2C(=O)[C@@H](NC(=O)CCCCCCCCCC(=O)N2CCN(c3ccc(Nc4nc5cccc(-c6ccc(S(C)(=O)=O)cc6)n5n4)cc3)CC2)C(C)(C)C)cc1` [JA-081, 4-Hydroxy-1-{2-[11-(4-{4-[5-(4-methanesulfonyl-phenyl)-[1,2,4]triazolo[1,5-a]pyridin-2-ylamino]-phenyl}-piperazin-1-yl)-11-oxo-undecanoylamino]-3,3-dimethyl-butyryl}-pyrrolidine-2-carboxylic acid 4-(4-methyl-thiazol-5-yl)-benzylamide], with more than 10000 nM.

On to `Cc1ncsc1-c1ccc(CNC(=O)[C@@H]2C[C@@H](O)CN2C(=O)[C@@H](NC(=O)CCOCCC(=O)N2CCN(c3ccc(Nc4nc5cccc(-c6ccc(S(C)(=O)=O)cc6)n5n4)cc3)CC2)C(C)(C)C)cc1` [JA-082, 4-Hydroxy-1-(2-{3-[3-(4-{4-[5-(4-methanesulfonyl-phenyl)-[1,2,4]triazolo[1,5-a]pyridin-2-ylamino]-phenyl}-piperazin-1-yl)-3-oxo-propoxy]-propionylamino}-3,3-dimethyl-butyryl)-pyrrolidine-2-carboxylic acid 4-(4-methyl-thiazol-5-yl)-benzylamide], for which the IC50 turned out to be 6430 nM. For the molecule `Cc1ncsc1-c1ccc(CNC(=O)[C@@H]2C[C@@H](O)CN2C(=O)[C@@H](NC(=O)COCCOCCOCCOCCOCC(=O)N2CCN(c3ccc(Nc4nc5cccc(-c6ccc(S(C)(=O)=O)cc6)n5n4)cc3)CC2)C(C)(C)C)cc1` [JA-083, (2S,4R)-1-((S)-2-(tert-Butyl)-20-(4-(4-((5-(4-(methylsulfonyl)phenyl)-[1,2,4]triazolo[1,5-a]pyridin-2-yl)amino)phenyl)piperazin-1-yl)-4,20-dioxo-6,9,12,15,18-pentaoxa-3-azaicosanoyl)-4-hydroxy-N-(4-(4-methylthiazol-5-yl)benzyl)pyrrolidine-2-carboxamide], the IC50 is more than 10000 nM.

With `CS(=O)(=O)c1ccc(-c2cccc3nc(Nc4ccc(N5CCN(C(=O)CCCCCCCNc6cccc7c6C(=O)N(C6CCC(=O)NC6=O)C7=O)CC5)cc4)nn23)cc1` (centres unmarked) [JA-084, 2-(2,6-Dioxo-piperidin-3-yl)-4-[8-(4-{4-[5-(4-methanesulfonyl-phenyl)-[1,2,4]triazolo[1,5-a]pyridin-2-ylamino]-phenyl}-piperazin-1-yl)-8-oxo-octylamino]-isoindole-1,3-dione], the half-inhibitory concentration (IC50) is more than 10000 nM. On the same count and under the same terms, to `CS(=O)(=O)c1ccc(-c2cccc3nc(Nc4ccc(N5CCN(C(=O)CCOCCOCCOCCNc6cccc7c6C(=O)N(C6CCC(=O)NC6=O)C7=O)CC5)cc4)nn23)cc1` (centres unmarked) [JA-085, 2-(2,6-Dioxo-piperidin-3-yl)-4-[2-(2-{2-[3-(4-{4-[5-(4-methanesulfonyl-phenyl)-[1,2,4]triazolo[1,5-a]pyridin-2-ylamino]-phenyl}-piperazin-1-yl)-3-oxo-propoxy]-ethoxy}-ethoxy)-ethylamino]-isoindole-1,3-dione] belongs 3950 nM; to `Cc1cnc(Nc2ccc(N3CCN(CC(=O)NCCOCCOCCNc4cccc5c4C(=O)N(C4CCC(=O)NC4=O)C5=O)CC3)cc2)nc1Nc1cccc(S(=O)(=O)NC(C)(C)C)c1` (centres unmarked) [JA-086, 2-(4-(4-((4-((3-(N-(tert-Butyl)sulfamoyl)phenyl)amino)-5-methylpyrimidin-2-yl)amino)phenyl)piperazin-1-yl)-N-(2-(2-(2-((2-(2,6-dioxopiperidin-3-yl)-1,3-dioxoisoindolin-4-yl)amino)ethoxy)ethoxy)ethyl)acetamide], 564 nM; to `Cc1cnc(Nc2ccc(N3CCN(CC(=O)NCCOCCNc4cccc5c4C(=O)N(C4CCC(=O)NC4=O)C5=O)CC3)cc2)nc1Nc1cccc(S(=O)(=O)NC(C)(C)C)c1` (centres unmarked) [JA-087, 2-(4-(4-((4-((3-(N-(tert-Butyl)sulfamoyl)phenyl)amino)-5-methylpyrimidin-2-yl)amino)phenyl)piperazin-1-yl)-N-(2-(2-((2-(2,6-dioxopiperidin-3-yl)-1,3-dioxoisoindolin-4-yl)amino)ethoxy)ethyl)acetamide], 143 nM. The same measure, in the same setting: to `Cc1cnc(Nc2ccc(N3CCN(CC(=O)NCCOCCOCCOCCNc4cccc5c4C(=O)N(C4CCC(=O)NC4=O)C5=O)CC3)cc2)nc1Nc1cccc(S(=O)(=O)NC(C)(C)C)c1` (centres unmarked) [JA-088, 2-(4-(4-((4-((3-(N-(tert-Butyl)sulfamoyl)phenyl)amino)-5-methylpyrimidin-2-yl)amino)phenyl)piperazin-1-yl)-N-(2-(2-(2-(2-((2-(2,6-dioxopiperidin-3-yl)-1,3-dioxoisoindolin-4-yl)amino)ethoxy)ethoxy)ethoxy)ethyl)acetamide] belongs 369 nM.

Regarding `Cc1cnc(Nc2ccc(N3CCN(CC(=O)NCCOCCOCCOCCOCCNc4cccc5c4C(=O)N(C4CCC(=O)NC4=O)C5=O)CC3)cc2)nc1Nc1cccc(S(=O)(=O)NC(C)(C)C)c1` (centres unmarked) [JA-089, 2-(4-(4-((4-((3-(N-(tert-Butyl)sulfamoyl)phenyl)amino)-5-methylpyrimidin-2-yl)amino)phenyl)piperazin-1-yl)-N-(14-((2-(2,6-dioxopiperidin-3-yl)-1,3-dioxoisoindolin-4-yl)amino)-3,6,9,12-tetraoxatetradecyl)acetamide], the IC50 stood at 975 nM. The same measure, in the same setting: then `Cc1cnc(Nc2ccc(N3CCN(CC(=O)NCCNc4cccc5c4C(=O)N(C4CCC(=O)NC4=O)C5=O)CC3)cc2)nc1Nc1cccc(S(=O)(=O)NC(C)(C)C)c1` (centres unmarked) [JA-090, 2-(4-(4-((4-((3-(N-(tert-Butyl)sulfamoyl)phenyl)amino)-5-methylpyrimidin-2-yl)amino)phenyl)piperazin-1-yl)-N-(2-((2-(2,6-dioxopiperidin-3-yl)-1,3-dioxoisoindolin-4-yl)amino)ethyl)acetamide], with 3480 nM; and `Cc1cnc(Nc2ccc(N3CCN(CC(=O)NCCCNc4cccc5c4C(=O)N(C4CCC(=O)NC4=O)C5=O)CC3)cc2)nc1Nc1cccc(S(=O)(=O)NC(C)(C)C)c1` (centres unmarked) [JA-091, 2-(4-(4-((4-((3-(N-(tert-Butyl)sulfamoyl)phenyl)amino)-5-methylpyrimidin-2-yl)amino)phenyl)piperazin-1-yl)-N-(3-((2-(2,6-dioxopiperidin-3-yl)-1,3-dioxoisoindolin-4-yl)amino)propyl)acetamide], with 2980 nM; and `Cc1cnc(Nc2ccc(N3CCN(CC(=O)NCCCCNc4cccc5c4C(=O)N(C4CCC(=O)NC4=O)C5=O)CC3)cc2)nc1Nc1cccc(S(=O)(=O)NC(C)(C)C)c1` (centres unmarked) [JA-092, 2-(4-(4-((4-((3-(N-(tert-Butyl)sulfamoyl)phenyl)amino)-5-methylpyrimidin-2-yl)amino)phenyl)piperazin-1-yl)-N-(4-((2-(2,6-dioxopiperidin-3-yl)-1,3-dioxoisoindolin-4-yl)amino)butyl)acetamide], with 2830 nM. On the same count and under the same terms, then `Cc1cnc(Nc2ccc(N3CCN(CC(=O)NCCCCCNc4cccc5c4C(=O)N(C4CCC(=O)NC4=O)C5=O)CC3)cc2)nc1Nc1cccc(S(=O)(=O)NC(C)(C)C)c1` (centres unmarked) [JA-093, 2-(4-(4-((4-((3-(N-(tert-butyl)sulfamoyl)phenyl)amino)-5-methylpyrimidin-2-yl)amino)phenyl)piperazin-1-yl)-N-(5-((2-(2,6-dioxopiperidin-3-yl)-1,3-dioxoisoindolin-4-yl)amino)pentyl)acetamide], with 73.3 nM; and `Cc1cnc(Nc2ccc(N3CCN(CC(=O)NCCCCCCNc4cccc5c4C(=O)N(C4CCC(=O)NC4=O)C5=O)CC3)cc2)nc1Nc1cccc(S(=O)(=O)NC(C)(C)C)c1` (centres unmarked) [JA-094, 2-(4-(4-((4-((3-(N-(tert-butyl)sulfamoyl)phenyl)amino)-5-methylpyrimidin-2-yl)amino)phenyl)piperazin-1-yl)-N-(6-((2-(2,6-dioxopiperidin-3-yl)-1,3-dioxoisoindolin-4-yl)amino)hexyl)acetamide], with 74.4 nM. `Cc1cnc(Nc2ccc(N3CCN(CC(=O)NCCCCCCCNc4cccc5c4C(=O)N(C4CCC(=O)NC4=O)C5=O)CC3)cc2)nc1Nc1cccc(S(=O)(=O)NC(C)(C)C)c1` (centres unmarked) [JA-095, 2-(4-(4-((4-((3-(N-(tert-Butyl)sulfamoyl)phenyl)amino)-5-methylpyrimidin-2-yl)amino)phenyl)piperazin-1-yl)-N-(7-((2-(2,6-dioxopiperidin-3-yl)-1,3-dioxoisoindolin-4-yl)amino)heptyl)acetamide]: the IC50 is 122 nM.
